Laboratory results from patent US5849701A, “Peptide inhibitors of fibronectin and related collagen-binding proteins” (The United States of America as represented by the …, priority 1995, dated 1998).
Each block holds one molecule with its values, some of them ahead of it. Where no end group is shown, it is not given here.

Tests used:
fibronectin [1] = target: T1, fibronectin (Homo sapiens, UniProt P02751); test: Inhibition of fibronectin binding to immobilized native type I collagen
Experimental: (§1) Wells of a microtiter plate were incubated for 3 hours at 25° C. with […] gelatin in Dulbecco's PBS. The wells were emptied and incubated with Dulbecco's PBS containing 1% BSA for 30 minutes. The wells were emptied and incubated with 0.5 μg/ml ^125 I-fibronectin in the presence of peptide GlyGlyTrpSerHisTrp (SEQ ID NO: 1) (.circle-solid.); GlyGlyTrpSerLysTrp (SEQ ID NO: 9) (.tangle-solidup.); GlyGlyTyrSerHisTrp (SEQ ID NO: 10) (.box-solid.); or GlyGlyTrpSerHisTyr (SEQ ID NO: 11) (.tangle-soliddn.) for 2 hours at 25° C. The wells were washed 4 times with PBS, cut from the plate and the bound radioactivity was counted.
A ligand binding assay as described in Example 5 was performed except that microtiter plates were coated with immobilized native type I collagen in place of gelatin.

fibronectin [2] = target: T1, fibronectin; test: Inhibition of 125I-fibronectin binding to immobilized peptide GlyGlyTrpSerHisTrp; conditions: wells coated with 50 μg/ml peptide; 0.5 μg/ml 125I-fibronectin
Experimental: Microtiter plate wells were coated with 50 μg/ml of peptide GlyGlyTrpSerHisTrp (SEQ ID NO: 1) as in Example 1. Binding of ^125 I-fibronectin (0.5 μg/ml) to bound peptide was determined in the presence of increasing amounts of the peptides: FIG. 2A: the peptides are GlyGlyTrpSerHisTrp (SEQ ID NO: 1) (.circle-solid.); GlyGlyTrpSerLysTrp (SEQ ID NO: 9) (.tangle-solidup.); GlyGlyTyrSerHisTrp (SEQ ID NO: 10) (.box-solid.) and GlyGlyTrpSerHisTyr (SEQ ID NO: 11) (.tangle-soliddn.); FIG. 2B: GlyGlyTrpSerHisTrp (SEQ ID NO: 1) (-); GlyGlyTrpThrHisTrp (SEQ ID NO: 12) (.tangle-solidup.); GlyGlyTrpAlaHisTrp (SEQ ID NO: 13) (.box-solid.); GlyTrpSerHisTrp (SEQ ID NO: 14) (+); AlaAlaTrpSerHisTrp (SEQ ID NO: 21) (.tangle-soliddn.); and AspGlyTrpSerHisTrp (SEQ ID NO: 22) (.quadrature.).
Binding of ^125 1-fibronectin (0.5 μg/ml) to microtiter plate wells coated with 50 μg/ml of peptide GlyGlyTrpSerHisTrp (SEQ ID NO: 1) was determined in the presence of synthetic peptide GlyGlyTrpSerHisTrp (SEQ ID NO: 1), fibronectin or thrombospondin.
Microtiter plates were coated with 50 μg/ml of synthetic peptide GlyGlyTrpSerHisTrp (SEQ ID NO: 1) as described in Example 1. Binding of 125I-fibronectin (0.5 μg/ml) to the bound peptide was determined in the presence of proteolytic fragments of fibronectin, which were obtained from Telios Pharmaceuticals, Inc. San Diego, Calif. The proteolytic fragments included intact fibronectin; 30 kDa gelatin-binding domain; 33 kDa recombinant cell binding domain; 28 kDa recombinant cell binding domain and transferrin.

fibronectin [3] = target: T1, fibronectin; test: Inhibition of 125I-fibronectin binding to gelatin; conditions: 0.5 μg/ml 125I-fibronectin, 2 hours at 25° C.
Experimental: as §1

fibronectin [4] = target: T1, fibronectin; test: Direct binding of 125I-fibronectin to immobilized peptides
Experimental: Fibronectin was isolated from platelet-depleted plasma as described (Ariyama, et al. 1985, J. Biol. Chem. 260:4492-4500) and iodinated using Iodogen (Pierce Chemical Co., Rockford, Ill.) as described (Roberts, et al. 1987, J. Cell. Biol. 104:131-139).
Direct binding of the fibronectin to immobilized peptides was carried out by first absorbing the peptides on polyvinyl chloride microtiter wells for 3 hours at 25° C. at the indicated concentrations. Unbound peptides were removed by washing and wells were incubated for 30 minutes in tris-BSA (50 mM tris-HCl, pH7-8, 110 mm NaCl, 1% BSA) (Sigma fatty acid and globulin-free, 0.1% NaN3). The wells were washed and incubated with […] of 0.5 μg/ml ^125 I-fibronectin for 2 hours at 25° C. The wells were washed five times with Dulbecco's phosphate buffered saline and cut from the plate and bound radioactivity was counted.
The peptides listed in Table 1 were synthesized as described above and absorbed to microtiter wells. […] This peptide sequence is located in the second type I repeat of the human-ThbsI gene.

T1 sequence (P02751 32-2477): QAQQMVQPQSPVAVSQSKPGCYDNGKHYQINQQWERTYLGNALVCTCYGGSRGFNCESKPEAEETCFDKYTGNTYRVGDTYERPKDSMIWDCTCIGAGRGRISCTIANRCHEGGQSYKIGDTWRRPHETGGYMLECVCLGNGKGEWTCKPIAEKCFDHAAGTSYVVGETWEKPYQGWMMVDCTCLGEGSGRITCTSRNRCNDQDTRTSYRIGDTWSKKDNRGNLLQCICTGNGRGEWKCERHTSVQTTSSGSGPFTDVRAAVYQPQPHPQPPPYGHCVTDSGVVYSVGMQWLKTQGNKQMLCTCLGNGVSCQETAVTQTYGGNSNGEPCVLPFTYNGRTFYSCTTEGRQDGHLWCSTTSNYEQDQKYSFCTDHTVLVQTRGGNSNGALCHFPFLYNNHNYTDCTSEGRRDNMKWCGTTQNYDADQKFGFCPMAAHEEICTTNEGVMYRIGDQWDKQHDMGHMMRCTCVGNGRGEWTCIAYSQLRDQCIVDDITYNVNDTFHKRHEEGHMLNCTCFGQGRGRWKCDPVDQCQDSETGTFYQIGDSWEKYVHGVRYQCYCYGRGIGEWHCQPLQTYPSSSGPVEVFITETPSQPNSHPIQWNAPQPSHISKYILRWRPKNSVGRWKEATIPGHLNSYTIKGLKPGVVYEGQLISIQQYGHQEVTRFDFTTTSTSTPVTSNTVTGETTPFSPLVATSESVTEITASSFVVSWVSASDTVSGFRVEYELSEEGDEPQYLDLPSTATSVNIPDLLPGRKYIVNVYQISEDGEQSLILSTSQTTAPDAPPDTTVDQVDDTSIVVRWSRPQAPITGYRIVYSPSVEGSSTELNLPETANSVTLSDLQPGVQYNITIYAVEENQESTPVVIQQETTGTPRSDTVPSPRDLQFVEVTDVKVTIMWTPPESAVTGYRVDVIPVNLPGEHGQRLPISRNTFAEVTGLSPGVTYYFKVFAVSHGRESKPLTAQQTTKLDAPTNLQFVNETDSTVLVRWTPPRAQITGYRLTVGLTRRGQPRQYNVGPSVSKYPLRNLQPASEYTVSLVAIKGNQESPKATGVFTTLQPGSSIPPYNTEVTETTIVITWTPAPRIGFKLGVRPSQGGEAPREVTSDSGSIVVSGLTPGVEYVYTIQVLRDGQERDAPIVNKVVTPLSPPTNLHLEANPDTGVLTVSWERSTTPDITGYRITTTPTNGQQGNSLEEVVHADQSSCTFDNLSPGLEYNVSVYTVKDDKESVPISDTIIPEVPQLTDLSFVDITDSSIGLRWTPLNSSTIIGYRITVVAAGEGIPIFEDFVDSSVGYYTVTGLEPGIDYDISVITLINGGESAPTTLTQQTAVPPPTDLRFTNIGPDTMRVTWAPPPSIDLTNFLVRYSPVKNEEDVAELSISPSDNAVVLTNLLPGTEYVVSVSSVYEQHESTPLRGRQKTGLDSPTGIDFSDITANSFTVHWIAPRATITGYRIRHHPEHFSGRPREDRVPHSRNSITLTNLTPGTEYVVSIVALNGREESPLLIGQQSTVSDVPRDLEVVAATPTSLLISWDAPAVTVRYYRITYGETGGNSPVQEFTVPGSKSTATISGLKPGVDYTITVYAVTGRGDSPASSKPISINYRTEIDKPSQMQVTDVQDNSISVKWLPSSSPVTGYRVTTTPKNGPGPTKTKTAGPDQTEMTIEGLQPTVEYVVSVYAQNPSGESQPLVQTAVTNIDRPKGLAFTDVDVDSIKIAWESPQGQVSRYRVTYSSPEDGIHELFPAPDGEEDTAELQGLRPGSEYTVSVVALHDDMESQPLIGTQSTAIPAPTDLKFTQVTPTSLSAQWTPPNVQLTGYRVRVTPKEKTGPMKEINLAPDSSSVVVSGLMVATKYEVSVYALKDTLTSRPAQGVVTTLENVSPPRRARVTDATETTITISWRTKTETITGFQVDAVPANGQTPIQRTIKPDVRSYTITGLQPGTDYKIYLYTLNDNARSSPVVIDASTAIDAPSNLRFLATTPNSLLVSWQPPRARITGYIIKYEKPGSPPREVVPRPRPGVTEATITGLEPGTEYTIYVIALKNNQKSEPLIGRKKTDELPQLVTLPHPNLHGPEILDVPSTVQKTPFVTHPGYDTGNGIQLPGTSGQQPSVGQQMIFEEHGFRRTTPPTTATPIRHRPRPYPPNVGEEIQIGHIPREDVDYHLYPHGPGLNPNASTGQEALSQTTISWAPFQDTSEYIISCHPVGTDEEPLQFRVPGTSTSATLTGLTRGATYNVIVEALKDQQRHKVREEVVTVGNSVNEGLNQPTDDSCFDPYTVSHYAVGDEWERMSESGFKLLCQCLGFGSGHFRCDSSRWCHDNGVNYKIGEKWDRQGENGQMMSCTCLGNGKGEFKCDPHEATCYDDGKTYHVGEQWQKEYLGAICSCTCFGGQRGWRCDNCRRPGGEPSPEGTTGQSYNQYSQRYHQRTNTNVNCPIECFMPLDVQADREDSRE

inhibition of fibronectin binding to type I collagen (in words) (fibronectin [1]): inactive
Molecule: WSHWSP [Peptide 292, WSHWSP]

inhibition of fibronectin binding to immobilized peptide GlyGlyTrpSerHisTrp (in words) (fibronectin [2]): inactive | inhibition of fibronectin binding to gelatin (in words) (fibronectin [3]): inactive | inhibition of fibronectin binding to type I collagen (in words) (fibronectin [1]): inactive
Molecule: GGWSHY [GlyGlyTrpSerHisTyr]

IC50 for competition of 125I-fibronectin binding to peptide GlyGlyTrpSerHisTrp (fibronectin [2]): > 200 µg/mL
Molecule: transferrin [reference compound]

inhibition of fibronectin binding to immobilized peptide GlyGlyTrpSerHisTrp (in words) (fibronectin [2]): competed
Molecule: fibronectin

inhibition of fibronectin binding to type I collagen (in words) (fibronectin [1]): inactive
Molecule: DGWSHW [AspGlyTrpSerHisTrp]

inhibition of fibronectin binding to immobilized peptide GlyGlyTrpSerHisTrp (in words) (fibronectin [2]): inactive | inhibition of fibronectin binding to gelatin (in words) (fibronectin [3]): inactive | inhibition of fibronectin binding to type I collagen (in words) (fibronectin [1]): inactive
Molecule: GGYSHW [GlyGlyTyrSerHisTrp]

inhibition of fibronectin binding to type I collagen (in words) (fibronectin [1]): inactive
Molecule: AAWSHW [AlaAlaTrpSerHisTrp]

IC50 for competition of 125I-fibronectin binding to peptide GlyGlyTrpSerHisTrp (fibronectin [2]): > 200 µg/mL
Molecule: fetuin: control protein [reference compound]

binding of fibronectin to peptide (in words) (fibronectin [4]): inactive
Molecule: DGWSPW [Peptide 317, DGWSPW]

IC50 (fibronectin [2]): 27 µM | IC50 (fibronectin [1]): 40 µM
Molecule: GGWSHW [Peptide 300, GGWSHW]

inhibition of fibronectin binding to immobilized peptide GlyGlyTrpSerHisTrp (in words) (fibronectin [2]): competed
Molecule: thrombospondin: Human platelet thrombospondin, purified

inhibition of fibronectin binding to immobilized peptide GlyGlyTrpSerHisTrp (in words) (fibronectin [2]): inactive | inhibition of fibronectin binding to gelatin (in words) (fibronectin [3]): inactive | inhibition of fibronectin binding to type I collagen (in words) (fibronectin [1]): inactive
Molecule: GGWSKW [GlyGlyTrpSerLysTrp]

inhibition of fibronectin binding to type I collagen (in words) (fibronectin [1]): inactive
Molecule: GGWTHW [GlyGlyTrpThrHisTrp]

binding of fibronectin to peptide (in words) (fibronectin [4]): inactive
Molecule: GGWGPW [Peptide 318, GGWGPW]

IC50 for competition of 125I-fibronectin binding to peptide GlyGlyTrpSerHisTrp (fibronectin [2]): > 200 µg/mL
B1: ovalbumin: control protein (protein, UniProt P01012 2-386, looked up)
Ovalbumin: GSIGAASMEFCFDVFKELKVHHANENIFYCPIAIMSALAMVYLGAKDSTRTQINKVVRFDKLPGFGDSIEAQCGTSVNVHSSLRDILNQITKPNDVYSFSLASRLYAEERYPILPEYLQCVKELYRGGLEPINFQTAADQARELINSWVESQTNGIIRNVLQPSSVDSQTAMVLVNAIVFKGLWEKAFKDEDTQAMPFRVTEQESKPVQMMYQIGLFRVASMASEKMKILELPFASGTMSMLVLLPDEVSGLEQLESIINFEKLTEWTSSNVMEERKIKVYLPRMKMEEKYNLTSVLMAMGITDVFSSSANLSGISSAESLKISQAVHAAHAEINEAGREVVGSAEAGVDAASVSEEFRADHPFLFCIKHIATNAVLFFGRCVSP
